# Measurements as given in patent US20130059778A1, “Identification of a Genetic Risk Factor for Diabetes” (priority 2010, published 2013).
# Key:
# [1] = test system: islets isolated from ankB (+/+) and (+/−) mice; experiment: Insulin secretion assay, islets from ankB(+/+) and (+/−) mice; assay type: cell-based, mouse; conditions: for potentiation of glucose-stimulated insulin release: Glp-1 100 nM
# Description: Islets were isolated from ankB littermates and male Wistar rats by pancreatic perifusion as previously described (28). Islets were maintained in culture medium containing 11 mM glucose until the day of the assay. Insulin secretion was assayed in HEPES balanced salt solution (HBSS) (114 mM NaCl, 4.7 mM KCl, 1.2 mM KH2PO4, 1.16 mM MgSO4, 20 mM HEPES, 2.5 mM CaCl2, 25.5 mM NaHCO3, and 0.2% BSA, pH 7.2). Islets were pre-incubated HBSS containing 3 mM glucose for 2 hours. Insulin secretion was then measured by using static incubation for a 1 h period in HBSS containing 3 mM glucose. Islets were then transferred to HBSS containing 16.7 or 8 mM glucose for 1 hour, and then HBSS containing 16.7 or 8 mM glucose plus 0.1 mM carbachol or 100 nM Glp-1 for 1 hour. Following the incubations, islet samples were normalized for insulin content by extraction with 1 M acetic acid in 0.1% BSA. Static incubation samples and extract samples were analyzed for insulin concentrations via radioimmunoassay with the insulin Coat-a-Count kit (Diagnostic Products, Los Angeles). Values presented represent the mean values+/−SEM.
# [2] = test system: islets from ankB(+/+) and (+/−) mice; experiment: Intraislet calcium measurements using Fura-2; assay type: cell-based, mouse
# Description: Islets from 8-10 month ankB(+/+) and (+/−) mice were isolated as described above and incubated overnight in medium containing 11 mM glucose. […] Islets were incubated 45 min at 37° C. Islets were then affixed to small open perifusion chamber (volume 150 μL) with a coverslip bottom using Puramatrix Peptide Hydrigel (BD Biosciences). Chamber was then mounted on a Zeiss Axiovert epifluorescence inverted microscope fitted with a Plan-Neofluar 16x/0.50 objective. The fluorescence (excitation at 355 or 380 nm) was recorded by a slow-scan charged-coupled device (CCD) camera (Andor Technology) and quantitated using AndorIQ software. All perifusions were performed at 37° C. using perfusion buffer containing either 3 mM glucose, 11 mM glucose, 30 mM KCl in 3 mM glucose, or 0.1 mM carbachol in 3 mM glucose. To assay carbachol effects in the absence of calcium, buffer containing 2 mM EGTA and 0 mM Ca^2+ was used. Data represent the mean+/−SEM of 3-7 individual islet recordings/animal using 6 animals/genotype. Significance was calculated using two-tailed T test.
# [3] = test system: wild type rat islets; experiment: Insulin secretion assay, rat islets treated with adenovirus (siRNA knockdown / rescue); assay type: cell-based; conditions: adenoviral delivery to knockdown islets; p=0.03, n=6
# Description: INS-1-derived cell line 823/3 was cultured as described previously (28). Small interfering RNA (siRNA) sequences corresponding to rat ankyrin-B siRNA1: GGCCAGAAGATCTCAAGGA (SEQ ID NO:2), siRNA2: GCTGTGTAGCATTTTAACA (SEQ ID NO:3), or a control siRNA which is siRNA 1 mutated at three base sites: GGCCCGAAGAGCTCAAGGA (SEQ ID NO:4), were cloned into vector EHOO6 and used for construction of Ad-ankB siRNA recombinant adenoviruses by the methods described (29). Complementary DNAs encoding human ankyrin-B or ankyrin-B W/W (7, 8) were used to prepare recombinant adenoviruses (AdCMV-h ankB and h ankB RAN) using the AdEasy system (Stratagene catalog number 240010). An adenovirus containing the green fluorescent protein (GFP) gene (AdCMV-_GFP) was used as a control. Purified viruses were incubated with INS-1 823/3 cells or islets at multiplicities of infection (MOI) of 20-50 for 18 h. Assays were undertaken 72 h later.
# Islets were isolated from ankB littermates and male Wistar rats by pancreatic perifusion as previously described (28). […] Insulin secretion was then measured by using static incubation for a 1 h period in HBSS containing 3 mM glucose. […] Static incubation samples and extract samples were analyzed for insulin concentrations via radioimmunoassay with the insulin Coat-a-Count kit (Diagnostic Products, Los Angeles). […]
compound,measurement,setting,value
C[N+](C)(C)CCOC(N)=O [carbachol],reduction in carbachol-stimulated insulin release,"[1]; ankB(+/−) islets vs ankB(+/+), carbachol 0.1 mM, p=0.007, n=6",40%
same,potentiation of insulin release by carbachol,"[1]; wild type islets, stimulatory glucose plus carbachol 0.1 mM",2.1 fold
same,reduction in Ca2+ release,"[2]; ankB(+/−) islets, carbachol 0.1 mM in buffer containing 5 mM Ca2+",64%
same,reduction in intracellular Ca2+ release,"[2]; ankB(+/−) vs ankB(+/+) islets, Ca2+-free buffer containing carbachol 0.1 mM",~79%
"full-length human ankyrin-B: full length 220 kD human ankyrin-B, siRNA-resistant, expressed from adenovirus",rescue of impaired carbachol-mediated insulin release,[3],−40%
glucagon-like peptide 1 [Glp-1],potentiation of glucose-stimulated insulin release,"[1]; ankB(+/−) islets, p=0.01, n=6",2.1 fold
same,potentiation of glucose-stimulated insulin release,[1]; wild type animals,~1.6 fold
